# Assay results as given in PubChem BioAssay (NCI).
#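 48-hour exposure; five concentrations; linearly interpolated endpoints. TGI: concentration producing complete growth inhibition.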
# Experiments:
# Experiment in all cases: inhibition of tumour cell growth, NCI panel, 48 h
# [1] = system: 786-0 renal
# [2] = system: A498 renal
# [3] = system: A549 NSCLC
# [4] = system: ACHN renal
# [5] = system: BT-549 breast
# [6] = system: CAKI-1 renal
# [7] = system: CCRF-CEM leukemia
# [8] = system: COLO 205 colon
# [9] = system: DU-145 prostate
# [10] = system: EKVX NSCLC
# [11] = system: HCT-116 colon
# [12] = system: HCT-15 colon
# [13] = system: HL-60(TB) leukemia
# [14] = system: HOP-62 NSCLC
# [15] = system: HOP-92 NSCLC
# [16] = system: HS 578T breast
# [17] = system: HT29 colon
# [18] = system: IGROV1 ovarian
# [19] = system: K-562 leukemia
# [20] = system: KM12 colon
# [21] = system: M14 melanoma
# [22] = system: MALME-3M melanoma
# [23] = system: MCF7 breast
# [24] = system: MDA-MB-231 breast
# [25] = system: MDA-MB-435
# [26] = system: MDA-N
# [27] = system: MOLT-4 leukemia
# [28] = system: NCI-H226 lung
# [29] = system: NCI-H23 lung
# [30] = system: NCI-H460 lung
# [31] = system: NCI-H522 lung
# [32] = system: NCI/ADR-RES ovarian
# [33] = system: OVCAR-3 ovarian
# [34] = system: OVCAR-4 ovarian
# [35] = system: OVCAR-5 ovarian
# [36] = system: OVCAR-8 ovarian
# [37] = system: PC-3 prostate
# [38] = system: RPMI-8226 leukemia
# [39] = system: RXF 393 renal
# [40] = system: SF-268 CNS
# [41] = system: SF-295 CNS
# [42] = system: SF-539 CNS
# [43] = system: SK-MEL-2 melanoma
# [44] = system: SK-MEL-28 melanoma
# [45] = system: SK-MEL-5 melanoma
# [46] = system: SK-OV-3 ovarian
# [47] = system: SN12C renal
# [48] = system: SNB-19 CNS
# [49] = system: SNB-75 CNS
# [50] = system: SR leukemia
# [51] = system: SW-620 colon
# [52] = system: T-47D breast
# [53] = system: U251 CNS
# [54] = system: UACC-257 melanoma
# [55] = system: UACC-62 melanoma
# [56] = system: UO-31 renal
# [57] = system: TK-10 renal
# [58] = system: HCC-2998 colon
# [59] = system: LOX IMVI melanoma
smiles,measurement,setting,value
CCC12CC(c3ccccc3)C(C(=O)N1)C(=O)N2 (configuration not stated),TGI,[1],> 100 µM
same,TGI,[2],> 100 µM
same,TGI,[3],> 100 µM
same,TGI,[4],> 100 µM
same,TGI,[5],> 100 µM
same,TGI,[6],> 100 µM
same,TGI,[7],> 100 µM
same,TGI,[8],> 100 µM
same,TGI,[9],> 100 µM
same,TGI,[10],> 100 µM
same,TGI,[11],> 100 µM
same,TGI,[12],> 100 µM
same,TGI,[13],> 100 µM
same,TGI,[14],> 100 µM
same,TGI,[15],> 100 µM
same,TGI,[16],> 100 µM
same,TGI,[17],> 100 µM
same,TGI,[18],> 100 µM
same,TGI,[19],> 100 µM
same,TGI,[20],> 100 µM
same,TGI,[21],> 100 µM
same,TGI,[22],> 100 µM
same,TGI,[23],> 100 µM
same,TGI,[24],> 100 µM
same,TGI,[25],> 100 µM
same,TGI,[26],> 100 µM
same,TGI,[27],> 100 µM
same,TGI,[28],> 100 µM
same,TGI,[29],> 100 µM
same,TGI,[30],> 100 µM
same,TGI,[31],> 100 µM
same,TGI,[32],> 100 µM
same,TGI,[33],> 100 µM
same,TGI,[34],> 100 µM
same,TGI,[35],> 100 µM
same,TGI,[36],> 100 µM
same,TGI,[37],> 100 µM
same,TGI,[38],> 100 µM
same,TGI,[39],> 100 µM
same,TGI,[40],> 100 µM
same,TGI,[41],> 100 µM
same,TGI,[42],> 100 µM
same,TGI,[43],> 100 µM
same,TGI,[44],> 100 µM
same,TGI,[45],> 100 µM
same,TGI,[46],> 100 µM
same,TGI,[47],> 100 µM
same,TGI,[48],> 100 µM
same,TGI,[49],> 100 µM
same,TGI,[50],> 100 µM
same,TGI,[51],> 100 µM
same,TGI,[52],> 100 µM
same,TGI,[53],> 100 µM
same,TGI,[54],> 100 µM
same,TGI,[55],> 100 µM
same,TGI,[56],> 100 µM
N#CCCSC(=S)C1CCCC1=N (configuration not stated),TGI,[1],> 100 µM
same,TGI,[2],> 100 µM
same,TGI,[3],> 100 µM
same,TGI,[4],> 100 µM
same,TGI,[5],> 100 µM
same,TGI,[6],> 100 µM
same,TGI,[8],> 100 µM
same,TGI,[9],> 100 µM
same,TGI,[10],> 100 µM
same,TGI,[11],> 100 µM
same,TGI,[12],> 100 µM
same,TGI,[13],> 100 µM
same,TGI,[14],> 100 µM
same,TGI,[15],> 100 µM
same,TGI,[16],> 100 µM
same,TGI,[17],> 100 µM
same,TGI,[18],> 100 µM
same,TGI,[19],> 100 µM
same,TGI,[20],> 100 µM
same,TGI,[21],> 100 µM
same,TGI,[22],> 100 µM
same,TGI,[23],> 100 µM
same,TGI,[24],> 100 µM
same,TGI,[25],> 100 µM
same,TGI,[26],> 100 µM
same,TGI,[27],> 100 µM
same,TGI,[28],> 100 µM
same,TGI,[29],> 100 µM
same,TGI,[30],> 100 µM
same,TGI,[31],> 100 µM
same,TGI,[32],> 100 µM
same,TGI,[33],> 100 µM
same,TGI,[34],> 100 µM
same,TGI,[35],> 100 µM
same,TGI,[36],> 100 µM
same,TGI,[37],> 100 µM
same,TGI,[38],> 100 µM
same,TGI,[39],> 100 µM
same,TGI,[40],> 100 µM
same,TGI,[41],> 100 µM
same,TGI,[42],> 100 µM
same,TGI,[43],> 100 µM
same,TGI,[44],> 100 µM
same,TGI,[45],> 100 µM
same,TGI,[46],> 100 µM
same,TGI,[47],> 100 µM
same,TGI,[48],> 100 µM
same,TGI,[49],94.4 µM
same,TGI,[51],> 100 µM
same,TGI,[52],> 100 µM
same,TGI,[57],> 100 µM
same,TGI,[53],> 100 µM
same,TGI,[54],> 100 µM
same,TGI,[55],> 100 µM
same,TGI,[56],> 100 µM
CCOC(=O)c1c[nH]cc1-c1cn(S(=O)(=O)c2ccccc2)cc1C,TGI,[1],> 100 µM
same,TGI,[2],> 10 µM
same,TGI,[3],> 100 µM
same,TGI,[4],64.3 µM
same,TGI,[5],74.8 µM
same,TGI,[6],48.4 µM
same,TGI,[7],> 100 µM
same,TGI,[8],42.4 µM
same,TGI,[9],> 100 µM
same,TGI,[10],71.3 µM
same,TGI,[58],41 µM
same,TGI,[11],58.9 µM
same,TGI,[12],76.4 µM
same,TGI,[13],> 100 µM
same,TGI,[14],> 100 µM
same,TGI,[15],> 100 µM
same,TGI,[16],46.2 µM
same,TGI,[17],52.8 µM
same,TGI,[18],77.7 µM
same,TGI,[19],86.4 µM
same,TGI,[20],49 µM
same,TGI,[59],71.9 µM
same,TGI,[21],44.3 µM
same,TGI,[22],40.4 µM
same,TGI,[23],61 µM
same,TGI,[24],> 100 µM
same,TGI,[25],> 10 µM
same,TGI,[26],48.4 µM
same,TGI,[27],> 100 µM
same,TGI,[29],69.8 µM
same,TGI,[30],47.3 µM
same,TGI,[31],46.4 µM
same,TGI,[32],> 100 µM
same,TGI,[33],61.8 µM
same,TGI,[34],> 100 µM
same,TGI,[35],> 100 µM
same,TGI,[36],> 100 µM
same,TGI,[37],56.3 µM
same,TGI,[39],> 100 µM
same,TGI,[40],78.6 µM
same,TGI,[41],> 100 µM
same,TGI,[42],53.5 µM
same,TGI,[43],> 100 µM
same,TGI,[44],38.4 µM
same,TGI,[45],> 10 µM
same,TGI,[46],> 100 µM
same,TGI,[47],59.6 µM
same,TGI,[48],> 100 µM
same,TGI,[49],63.1 µM
same,TGI,[51],> 10 µM
same,TGI,[52],> 100 µM
same,TGI,[57],> 100 µM
same,TGI,[53],85.4 µM
same,TGI,[54],37.6 µM
same,TGI,[55],33.6 µM
same,TGI,[56],> 100 µM
